Calls of active or inactive are those of the source. No cut-off for these calls is given here.
Key:
Rattus norvegicus [1] = test: Antiallergic activity in Wistar rat assessed as inhibition of passive cutaneous anaphylaxis up to 500 uM/kg, sc; format: functional, organism-based
Rattus norvegicus [2] = test: Antiallergic activity in sc dosed Wistar rat assessed as inhibition of passive cutaneous anaphylaxis at Tmax; format: functional
Rattus norvegicus [3] = test: Antiallergic activity in po dosed Wistar rat assessed as inhibition of passive cutaneous anaphylaxis administered 10 mins prior to antigen-challenge; format: functional

Row | SMILES | inhibition (Rattus norvegicus [1]) | ED50 (Rattus norvegicus [2]) | ED50 (Rattus norvegicus [3])
1 | Cc1c(O)c([N+](=O)[O-])c(O)c2ccccc12 | inactive | – | –
2 | O=C1C(O)=C([N+](=O)[O-])C(=O)c2cc3c(cc21)CCCC3 | – | 7.3 µmol/kg | 100 µmol/kg
3 | Cc1cccc2c1C(C)(C)C(=O)C([N+](=O)[O-])=C2O | inactive | – | –
4 | O=C1C(O)=C([N+](=O)[O-])C(=O)c2ccc(-c3ccccc3)cc21 | – | > 500 µmol/kg | –
5 | COc1ccc2c(c1)C(=O)C(O)=C([N+](=O)[O-])C2=O | – | 51.3 µmol/kg | –
6 | Cc1ccc2c(c1)C(=O)C(O)=C([N+](=O)[O-])C2=O | – | 181 µmol/kg | –
7 | Cc1cc2c(cc1C)C(=O)C([N+](=O)[O-])=C(O)C2=O | – | 11 µmol/kg | 100 µmol/kg
8 | Cc1ccc2c(c1)C(=O)C([N+](=O)[O-])=C(O)C2=O | – | 63.9 µmol/kg | –
9 | O=C(O)c1cc(=O)c2c(OCC(O)COc3cccc4oc(C(=O)O)cc(=O)c34)cccc2o1 [CROMOLYN SODIUM] | – | 13.1 µmol/kg | –
10 | CCc1cc2c(cc1CC)C(=O)C([N+](=O)[O-])=C(O)C2=O | – | 27.3 µmol/kg | –
11 | Cc1ccc2c(c1)C(O)=C([N+](=O)[O-])C(=O)C2(C)C | inactive | – | –
12 | CCOc1ccc2c(c1)C(=O)C(O)=C([N+](=O)[O-])C2=O | – | 68.2 µmol/kg | –
13 | O=C1C([N+](=O)[O-])=C(O)C(=O)c2c(O)cccc21 | – | > 500 µmol/kg | –
14 | COc1cc2c(cc1OC)C(=O)C([N+](=O)[O-])=C(O)C2=O | – | 42.8 µmol/kg | –
15 | O=C1C(O)=C([N+](=O)[O-])C(=O)c2ccc(Br)cc21 | – | > 500 µmol/kg | –
16 | Cc1cccc2c1C(=O)C(O)=C([N+](=O)[O-])C2=O | – | 76.2 µmol/kg | –
17 | CC1(C)C(=O)C([N+](=O)[O-])=C(O)c2ccccc21 | inactive | – | –
18 | O=C1C(O)=C([N+](=O)[O-])C(=O)c2ccc(F)cc21 | – | > 500 µmol/kg | –
19 | O=C1C(O)=C([N+](=O)[O-])C(=O)c2ccccc21 | – | 141 µmol/kg | –

Reference: ChEMBL document CHEMBL3244207, “Synthesis and antiallergic activity of 2-hydroxy-3-nitro-1,4-naphthoquinones” (1977)
